# According to US20240285615A1, “MEDICAMENTS COMPRISING GLYCOSIDASE INHIBITORS” (priority 2021, published 2024):
# Where two headings read alike, the source gives them in different places.
# How the values were obtained:
# [1] = system: patients with probable PSP Richardson's syndrome; assay: Phase 2 clinical trial in progressive supranuclear palsy (Example 6); type: in vivo, human; details: 300 mg or 150 mg TID PO, clinical study protocol
# Text: CLINICAL STUDY PROTOCOL: A Randomized, Double-blind, Placebo-Controlled Study to Evaluate the Efficacy and Safety of compound of formula (I) for the Treatment of Progressive Supranuclear Palsy
# PRIMARY OBJECTIVE: To evaluate the safety and tolerability of two different doses of compound (I) compared with placebo for the treatment of PSP
# STUDY DESIGN: This is a randomized, multi-centre, double-blind, placebo-controlled trial to study the safety and tolerability of compound (I) in patients with probable PSP Richardson's syndrome. Approximately 40 patients (40 to 85 years of age, inclusive) are randomized in a 2:1:1 ratio to 300 mg or 150 mg or placebo TID PO with meals.
# For all subjects, a screening visit is performed up to 6 weeks prior to dosing to determine eligibility. Eligible patients take investigational product (compound (I) or placebo) orally daily for about 12 weeks. Safety and tolerability data are collected at required visits to the study site. In addition, an “at home visit” for safety assessment and blood draw is organized. An open-label extension period of 52 weeks takes place upon completion of the initial double-blind treatment period. […]
# PRIMARY SAFETY ENDPOINT: Frequency of treatment-emergent adverse events recorded in the three treatment arms at Week 12.
# adults with PSP = assay: Randomized, double-blind, placebo-controlled Phase 2 trial in PSP (Example 8); type: in vivo, human; details: 75 mg, 150 mg or 300 mg TID PO, 72-week treatment
# [2] = system: hTauP301L-Tg mouse model of tauopathy; assay: In vivo effect on the hTauP301L-Tg mouse model of tauopathy; details: hTauP301L-Tg mice
# Text: Concomitant to the pathology, these mice progressively develop motoric deficits like clasping behaviour accompanied by a diminution of general mobility, and die prematurely at the age of 8-11 months (reMYND unpublished data, Terwel et al., 2005).
# [3] = system: kainate-induced seizure rat model; details: rats, daily oral gavage for 3 consecutive days
# Experimental: Compound of formula (I) is evaluated in the kainate-induced seizure rat model. Sprague-Dawley rats are treated with intraperitoneal injection of kainate (10 mg/kg) to induce seizure or with saline as vehicle control. […] The onset of status epilepticus (SE) is defined as the time from kainate injection to the occurrence of continuous seizure activity (Racine score 4-5) over a period of 4 h. Four weeks following the administration of kainate, animals undergo EEG surgery for electrodes implantation at the surface of the dura mater. […] Then, the animals receive a daily administration (oral gavage) of compound formula (I) for 3 consecutive days during which, cerebral activity is monitored by EEG recording. Animals are finally sacrificed ninety-six hours (4 days) post-baseline.
# [4] = Compatibility studies and short-term stability studies of drug substance with excipients; type: physicochemical
# Text: Compound (I) is a drug substance with suitable physical, biopharmaceutical, and chemical characteristics for development of an immediate release capsule formulation. […] The blend powder to be filled into the capsules contains common excipients: microcrystalline cellulose, croscarmellose sodium, colloidal silicon dioxide and magnesium stearate. All ingredients were used in concentrations typical for solid oral formulations. The selection of excipients, for the capsule powder, was based on compatibility studies and short-term stability studies. […] The final DP contains the following excipients for the tablet core: microcrystalline cellulose, povidone, croscarmellose sodium, copovidone, silica colloidal anhydrous and sodium stearyl fumarate. A water-based film coat made from hypromellose, macrogol, titanium dioxide and iron oxide was sprayed onto the core tablets. All ingredients were used in quantities typical for oral solid formulations. The selection of excipients was further backed-up by compatibility studies and short-term stability studies of binary mixtures for key ingredients.
# [5] = Phase 1 Part 2: multiple BID doses for 12 days, plasma pharmacokinetics; type: in vivo, human; details: for AR (accumulation ratio, AUC0-tau at Day 12/AUC0-tau at Day 1) / concentration at 12 day / Cmax / Tmax / half-life / AUC: plasma; for concentration at 12 day / Cmax / Tmax / half-life / AUC: both sexes, human; for concentration at 12 day: in vivo, read-out: Cmin; for Cmax / Tmax / half-life / AUC: oral; for Tmax: median (min, max); for AUC: read-out: AUC0-tau
# Experimental: The study was a single-centre, randomized, placebo-controlled single- and multiple ascending dose study in healthy male and female (no childbearing potential) volunteers aged 18-80 years. Study objectives were safety, tolerability, food effect and pharmacokinetics. Following identification of safe and tolerable single doses in healthy male subjects aged 18-55 years, separate cohorts were dosed to assess food effect. Furthermore, multiple-dose safety, tolerability, pharmacokinetics, CSF drug levels and pharmacodynamics were assessed in elderly (age 55-80 years) male or healthy non-child-bearing potential female volunteers.
# Day 1: Twice a day (BID) dosing. Day 2: No dosing. Day 3-11: 9 days of BID dosing. Day 12: one dose in the morning.
# [6] = 100 mg BID, Day 12, elderly subjects, arithmetic mean
# [7] = 250 mg BID, Day 12, elderly subjects, arithmetic mean
# [8] = 500 mg BID, Day 12, elderly subjects, arithmetic mean
smiles,measurement,setting,value
CC(=O)Nc1nnc(N2CCN([C@@H](C)c3ccc4c(c3)OCO4)CC2)s1 [Compound (I)],safety and tolerability of the preferred dosage regimen,[1],especially safe and well tolerated
same,"efficacy, safety and tolerability of the preferred dosage regimen",adults with PSP,"especially effective, safe and well tolerated"
same,extent of neuronal pathology,[2],diminishing the extent of neuronal pathology
same,"motoric function (clasping behaviour, beam walk)",[2],improvement in motoric function
same,survival rate,[2],significant benefit in survival rate
same,"epileptic activity by EEG (number of seizures, seizure duration, interictal spike frequency)",[3],reducing the epileptic activity
same,stability of the drug substance,[4],suitably stable
same,compatibility with excipients,"[4]; capsule powder: microcrystalline cellulose, croscarmellose sodium, colloidal silicon dioxide, magnesium stearate",no incompatibility with the chosen excipients
same,"AR (accumulation ratio, AUC0-tau at Day 12/AUC0-tau at Day 1)",[5]; [6],1.35
same,"AR (accumulation ratio, AUC0-tau at Day 12/AUC0-tau at Day 1)",[5]; [7],1.36
same,"AR (accumulation ratio, AUC0-tau at Day 12/AUC0-tau at Day 1)",[5]; [8],1.25
same,"dose proportionality of Cmax, AUC0-tau and AUC12-24","[5]; Day 1, BID 100 mg to BID 500 mg",Dose proportionality was observed
same,"dose proportionality of Cmax, AUC0-tau and AUC0-48","[5]; Day 12, BID 100 mg to BID 500 mg",Dose proportionality was observed
same,concentration at 12 day,[5]; [6],84 ng/mL
same,concentration at 12 day,[5]; [7],308 ng/mL
same,concentration at 12 day,[5]; [8],743 ng/mL
same,Cmax,"[5]; 100 mg, 100 mg BID, Day 1 (first dose), elderly subjects, arithmetic mean",1450 ng/mL
same,Tmax,"[5]; 100 mg, 100 mg BID, Day 1 (first dose), elderly subjects",0.75 h
same,half-life,"[5]; 100 mg, 100 mg BID, Day 1, elderly subjects, arithmetic mean, read-out: t1/2 (converted)",3.9 h
same,AUC,"[5]; 100 mg, 100 mg BID, Day 1, tau 12 h, elderly subjects, arithmetic mean",4120 ng·h/mL
same,Cmax,"[5]; 100 mg, 100 mg BID, Day 12, elderly subjects, arithmetic mean",1340 ng/mL
same,half-life,"[5]; 100 mg, 100 mg BID, Day 12, elderly subjects, arithmetic mean, read-out: t1/2 (converted)",7.84 h
same,Tmax,"[5]; 100 mg, 100 mg BID, Day 12, elderly subjects",2.25 h
same,AUC,"[5]; 100 mg, 100 mg BID, Day 12, tau 12 h, elderly subjects, arithmetic mean",5440 ng·h/mL
same,Cmax,"[5]; 250 mg, 250 mg BID, Day 1 (first dose), elderly subjects, arithmetic mean",3630 ng/mL
same,Tmax,"[5]; 250 mg, 250 mg BID, Day 1 (first dose), elderly subjects",0.5 h
same,half-life,"[5]; 250 mg, 250 mg BID, Day 1, elderly subjects, arithmetic mean, read-out: t1/2 (converted)",4.74 h
same,AUC,"[5]; 250 mg, 250 mg BID, Day 1, tau 12 h, elderly subjects, arithmetic mean",10700 ng·h/mL
same,Cmax,"[5]; 250 mg, 250 mg BID, Day 12, elderly subjects, arithmetic mean",3740 ng/mL
same,half-life,"[5]; 250 mg, 250 mg BID, Day 12, elderly subjects, arithmetic mean, read-out: t1/2 (converted)",10.2 h
same,Tmax,"[5]; 250 mg, 250 mg BID, Day 12, elderly subjects",1 h
same,AUC,"[5]; 250 mg, 250 mg BID, Day 12, tau 12 h, elderly subjects, arithmetic mean",14300 ng·h/mL
same,Cmax,"[5]; 500 mg, 500 mg BID, Day 1 (first dose), elderly subjects, arithmetic mean",6440 ng/mL
same,Tmax,"[5]; 500 mg, 500 mg BID, Day 1 (first dose), elderly subjects",1.02 h
same,half-life,"[5]; 500 mg, 500 mg BID, Day 1, elderly subjects, N=1, read-out: t1/2 (converted)",6.19 h
same,AUC,"[5]; 500 mg, 500 mg BID, Day 1, tau 12 h, elderly subjects, arithmetic mean",24300 ng·h/mL
same,Cmax,"[5]; 500 mg, 500 mg BID, Day 12, elderly subjects, arithmetic mean",6670 ng/mL
same,half-life,"[5]; 500 mg, 500 mg BID, Day 12, elderly subjects, arithmetic mean, read-out: t1/2 (converted)",10.7 h
same,Tmax,"[5]; 500 mg, 500 mg BID, Day 12, elderly subjects",1.5 h
same,AUC,"[5]; 500 mg, 500 mg BID, Day 12, tau 12 h, elderly subjects, arithmetic mean",30200 ng·h/mL
same,half-life,"[5]; 100 to 500 mg BID, single dose and multiple dose conditions, read-out: terminal half-life (t½), range of means",3.9 to 10.7 h
